In patent US9834550B2, “Pyridopyrimidinone compounds for modulating the catalytic activity of histone lysine demethylases (KDMs)” (Dong-A Socio Holdings Co., Ltd., priority 2014, dated 2017):

These compounds were tested against T1, Recombinant human JARID1B/KDM5B (Homo sapiens, UniProt Q9UGL1) (assay: LANCE Ultra TR-FRET demethylase assay with FLAG-tagged JARID1B). Settings: 100 nM compound; 500 nM biotinylated H3K4me3 peptide substrate.
T1 construct: purchased Active Motif 31432; host or cells: Sf9 insect cells
Format: biochemical
In short: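 Sf9-expressed N-FLAG full-length JARID1B (10–30 nM) preincubated 5 min with compound at 20, 1 or 0.1 uM (1% DMSO), then 500 nM biotin-H3K4me3 peptide, 500 uM 2-OG, 25 uM Fe(II), 2 mM ascorbate added; 30 min at room temperature in Hepes pH 7.5. H3K4me2/1 product read by TR-FRET 665/590 ratio.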

T1 sequence (Q9UGL1 whole entry): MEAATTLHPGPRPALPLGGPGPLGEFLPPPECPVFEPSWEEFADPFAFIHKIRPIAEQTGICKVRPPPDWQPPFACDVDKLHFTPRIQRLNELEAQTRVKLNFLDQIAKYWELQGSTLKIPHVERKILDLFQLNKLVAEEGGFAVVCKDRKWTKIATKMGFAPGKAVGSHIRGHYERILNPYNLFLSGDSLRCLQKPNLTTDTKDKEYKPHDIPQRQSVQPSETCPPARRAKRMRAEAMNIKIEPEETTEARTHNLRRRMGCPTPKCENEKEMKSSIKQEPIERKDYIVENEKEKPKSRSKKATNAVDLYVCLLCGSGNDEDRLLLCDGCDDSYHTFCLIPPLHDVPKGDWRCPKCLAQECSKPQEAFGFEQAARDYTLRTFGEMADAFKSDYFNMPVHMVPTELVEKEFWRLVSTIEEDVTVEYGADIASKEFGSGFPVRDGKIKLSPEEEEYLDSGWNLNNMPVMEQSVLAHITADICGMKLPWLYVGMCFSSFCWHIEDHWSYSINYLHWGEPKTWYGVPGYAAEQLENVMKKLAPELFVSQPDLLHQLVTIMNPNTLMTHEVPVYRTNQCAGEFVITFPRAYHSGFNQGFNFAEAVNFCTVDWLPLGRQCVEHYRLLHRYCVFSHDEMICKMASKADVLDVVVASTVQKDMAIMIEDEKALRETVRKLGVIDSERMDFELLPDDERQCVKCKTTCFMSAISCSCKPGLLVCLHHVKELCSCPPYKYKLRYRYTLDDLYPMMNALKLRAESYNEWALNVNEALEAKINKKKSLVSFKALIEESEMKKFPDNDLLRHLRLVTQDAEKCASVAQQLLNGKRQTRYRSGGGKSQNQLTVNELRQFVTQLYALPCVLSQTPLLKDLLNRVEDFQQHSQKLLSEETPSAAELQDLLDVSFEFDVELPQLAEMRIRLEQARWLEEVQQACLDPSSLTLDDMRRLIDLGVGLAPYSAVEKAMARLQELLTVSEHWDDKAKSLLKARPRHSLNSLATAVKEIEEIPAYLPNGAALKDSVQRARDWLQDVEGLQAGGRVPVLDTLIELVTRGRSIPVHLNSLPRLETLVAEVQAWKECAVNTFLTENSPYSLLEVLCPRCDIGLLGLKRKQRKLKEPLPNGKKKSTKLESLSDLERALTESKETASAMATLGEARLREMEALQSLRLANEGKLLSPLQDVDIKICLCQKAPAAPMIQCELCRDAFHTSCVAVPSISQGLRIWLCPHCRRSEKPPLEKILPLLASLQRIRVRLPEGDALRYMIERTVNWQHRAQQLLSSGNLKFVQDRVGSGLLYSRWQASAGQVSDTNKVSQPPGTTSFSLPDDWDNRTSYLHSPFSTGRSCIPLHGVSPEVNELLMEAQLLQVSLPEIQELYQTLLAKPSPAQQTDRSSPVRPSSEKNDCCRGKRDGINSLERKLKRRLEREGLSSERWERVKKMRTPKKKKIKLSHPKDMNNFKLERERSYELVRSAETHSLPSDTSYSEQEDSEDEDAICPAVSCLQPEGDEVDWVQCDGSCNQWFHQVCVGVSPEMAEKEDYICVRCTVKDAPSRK

SMILES	inhibition at 0.1 µM [%]
Cc1cc(C)n(CCNCc2nccc3c(=O)[nH]c(COc4ccc(F)c(Cl)c4)nc23)n1 [Example 183, 2-((3-chloro-4-fluorophenoxy)methyl)-8-(((2-(3,5-dimethyl-1H-pyrazol-1-yl)ethyl)amino)methyl)pyrido[3,4-d]pyrimidin-4(3H)-one]	< 20
O=c1[nH]c(COc2ccc(Cc3ccccc3)cc2)nc2c(CNCC3CCOCC3)nccc12 [Example 149, 2-((4-benzylphenoxy)methyl)-8-((((tetrahydro-2H-pyran-4-yl)methyl)amino)methyl)pyrido[3,4-d]pyrimidin-4(3H)-one]	> 50
CN1CCC(CNCc2nccc3c(=O)[nH]c(C4Cc5ccccc5C4)nc23)CC1 [Example 201, 2-(2,3-dihydro-1H-inden-2-yl)-8-((((1-methylpiperidin-4-yl)methyl)amino)methyl)pyrido[3,4-d]pyrimidin-4(3H)-one]	< 20
O=c1[nH]c(COc2ccc(Cc3ccccc3)cc2)nc2c(CNC[C@@H]3CCCNC3)nccc12 [Example 154, (R)-2-((4-benzylphenoxy)methyl)-8-(((piperidin-3-ylmethyl)amino)methyl)pyrido[3,4-d]pyrimidin-4(3H)-one]	> 50
O=c1[nH]c(COc2ccc(Cc3ccccc3)cc2)nc2c(CNC[C@H]3CCCNC3)nccc12 [Example 153, (S)-2-((4-benzylphenoxy)methyl)-8-(((piperidin-3-ylmethyl)amino)methyl)pyrido[3,4-d]pyrimidin-4(3H)-one]	> 50
Cc1nccn1CCNCc1nccc2c(=O)[nH]c(COc3ccc(F)c(Cl)c3)nc12 [Example 175, 2-((3-chloro-4-fluorophenoxy)methyl)-8-(((2-(2-methyl-1H-imidazol-1-yl)ethyl)amino)methyl)pyrido[3,4-d]pyrimidin-4(3H)-one]	20 to 50
O=c1[nH]c(COc2ccc(F)c(Cl)c2)nc2c(CNC[C@H]3CCNC3)nccc12 [Example 158, (S)-2-((3-chloro-4-fluorophenoxy)methyl)-8-(((pyrrolidin-3-ylmethyl)amino)methyl)pyrido[3,4-d]pyrimidin-4(3H)-one]	> 50
O=c1[nH]c(COc2cccc(Cl)c2)nc2c(CNCC3CCNCC3)nccc12 [Example 132, 2-((3-chlorophenoxy)methyl)-8-(((piperidin-4-ylmethyl)amino)methyl)pyrido[3,4-d]pyrimidin-4(3H)-one]	> 50
O=c1[nH]c(C2Cc3ccccc3O2)nc2c(CNCC3CCNCC3)nccc12 (stereo not drawn) [Example 197, 2-(2,3-dihydrobenzofuran-2-yl)-8-(((piperidin-4-ylmethyl)amino)methyl)pyrido[3,4-d]pyrimidin-4(3H)-one]	20 to 50
COc1cc(OCc2nc3cnccc3c(=O)[nH]2)cc(OC)c1OC [Example 39, 2-((3,4,5-trimethoxyphenoxy)methyl)pyrido[3,4-d]pyrimidin-4(3H)-one]	< 20
O=c1[nH]c(COCc2cccc(Cl)c2)nc2c(CNCC3CCNCC3)nccc12 [Example 206, 2-(((3-chlorobenzyl)oxy)methyl)-8-(((piperidin-4-ylmethyl)amino)methyl)pyrido[3,4-d]pyrimidin-4(3H)-one]	> 50
N[C@H]1CCN(C(=O)CNCc2nccc3c(=O)[nH]c(COc4ccc(F)c(Cl)c4)nc23)C1 [Example 229, (S)-8-(((2-(3-aminopyrrolidin-1-yl)-2-oxoethyl)amino)methyl)-2-((3-chloro-4-fluorophenoxy)methyl)pyrido[3,4-d]pyrimidin-4(3H)-one]	> 50
CCCCN(CC)C(=O)CNCc1nccc2c(=O)[nH]c(COc3ccc(F)c(Cl)c3)nc12 [Example 222, N-butyl-2-(((2-((3-chloro-4-fluorophenoxy)methyl)-4-oxo-3,4-dihydropyrido[3,4-d]pyrimidin-8-yl)methyl)amino)-N-ethylacetamide]	20 to 50
O=c1[nH]c(COc2ccc(Cc3ccccc3)cc2)nc2c(CNC[C@H]3CCCO3)nccc12 [Example 148, (R)-2-((4-benzylphenoxy)methyl)-8-((((tetrahydrofuran-2-yl)methyl)amino)methyl)pyrido[3,4-d]pyrimidin-4(3H)-one]	20 to 50
O=C(NCCC1CCNCC1)c1cc(OCc2nc3cnccc3c(=O)[nH]2)ccc1Cl [Example 46, 2-chloro-5-((4-oxo-3,4-dihydropyrido[3,4-d]pyrimidin-2-yl)methoxy)-N-(2-(piperidin-4-yl)ethyl)benzamide]	20 to 50
CN1CCC(CNCc2nccc3c(=O)[nH]c(COc4ccc(F)c(Cl)c4)nc23)C1 (stereo not drawn) [Example 159, 2-((3-chloro-4-fluorophenoxy)methyl)-8-((((1-methylpyrrolidin-3-yl)methyl)amino)methyl)pyrido[3,4-d]pyrimidin-4(3H)-one]	> 50
O=c1[nH]c(COc2cccc(CNCc3ccccc3)c2)nc2cnccc12 [Example 42, 2-((3-((benzylamino)methyl)phenoxy)methyl)pyrido[3,4-d]pyrimidin-4(3H)-one]	< 20

SMILES	inhibition at 0.1 µM [%]
CCc1ccc(OCc2nc3c(CNCC4CCNCC4)nccc3c(=O)[nH]2)cc1 [Example 135, 2-((4-ethylphenoxy)methyl)-8-(((piperidin-4-ylmethyl)amino)methyl)pyrido[3,4-d]pyrimidin-4(3H)-one]	20 to 50
Cc1cccc(CCNCc2nccc3c(=O)[nH]c(COc4ccc(F)c(Cl)c4)nc23)n1 [Example 184, 2-((3-chloro-4-fluorophenoxy)methyl)-8-(((2-(6-methylpyridin-2-yl)ethyl)amino)methyl)pyrido[3,4-d]pyrimidin-4(3H)-one]	< 20
CN1CCC(CNCc2nccc3c(=O)[nH]cnc23)CC1 [Example 95, 8-((((1-methylpiperidin-4-yl)methyl)amino)methyl)pyrido[3,4-d]pyrimidin-4(3H)-one]	20 to 50
O=c1[nH]c(COc2ccc(Cc3ccccc3)cc2)nc2c(CNC[C@H]3CCNC3)nccc12 [Example 150, (S)-2-((4-benzylphenoxy)methyl)-8-(((pyrrolidin-3-ylmethyl)amino)methyl)pyrido[3,4-d]pyrimidin-4(3H)-one]	> 50
O=C1CCCN1CCCNCc1nccc2c(=O)[nH]cnc12 [Example 88, 8-(((3-(2-oxopyrrolidin-1-yl)propyl)amino)methyl)pyrido[3,4-d]pyrimidin-4(3H)-one]	< 20
O=c1[nH]c(COc2ccc(Br)cc2)nc2c(CNCC3CCN(Cc4ccccc4)CC3)nccc12 [Example 108, 8-((((1-benzylpiperidin-4-yl)methyl)amino)methyl)-2-((4-bromophenoxy)methyl)pyrido[3,4-d]pyrimidin-4(3H)-one]	> 50
O=c1[nH]c(COc2ccc(F)c(Cl)c2)nc2c(CNCCCn3ccnc3)nccc12 [Example 165, 8-(((3-(1H-imidazol-1-yl)propyl)amino)methyl)-2-((3-chloro-4-fluorophenoxy)methyl)pyrido[3,4-d]pyrimidin-4(3H)-one]	> 50
O=c1[nH]c(COc2ccc(Cc3ccccc3)cc2)nc2c(CNC[C@@H]3CCNC3)nccc12 [Example 151, (R)-2-((4-benzylphenoxy)methyl)-8-(((pyrrolidin-3-ylmethyl)amino)methyl)pyrido[3,4-d]pyrimidin-4(3H)-one]	20 to 50
O=c1[nH]c(COc2ccc(F)c(Cl)c2)nc2c(CNC[C@@H]3CNCCO3)nccc12 [Example 187, (R)-2-((3-chloro-4-fluorophenoxy)methyl)-8-(((morpholin-2-ylmethyl)amino)methyl)pyrido[3,4-d]pyrimidin-4(3H)-one]	> 50
CN1CCC(CNCc2nccc3c(=O)[nH]c(COCc4ccccc4)nc23)CC1 [Example 203, 2-((benzyloxy)methyl)-8-((((1-methylpiperidin-4-yl)methyl)amino)methyl)pyrido[3,4-d]pyrimidin-4(3H)-one]	> 50
N#Cc1ccc(OCc2nc3c(CNCC4CCNCC4)nccc3c(=O)[nH]2)cc1 [Example 129, 4-((4-oxo-8-(((piperidin-4-ylmethyl)amino)methyl)-3,4-dihydropyrido[3,4-d]pyrimidin-2-yl)methoxy)benzonitrile]	20 to 50
O=c1[nH]c(COc2ccc(F)c(Cl)c2)nc2c(CNCc3ncco3)nccc12 [Example 179, 2-((3-chloro-4-fluorophenoxy)methyl)-8-(((oxazol-2-ylmethyl)amino)methyl)pyrido[3,4-d]pyrimidin-4(3H)-one]	20 to 50
C[C@@H](Oc1ccc(F)c(Cl)c1)c1nc2c(CNCC3CCN(C)CC3)nccc2c(=O)[nH]1 [Example 218, (R)-2-(1-(3-chloro-4-fluorophenoxy)ethyl)-8-((((1-methylpiperidin-4-yl)methyl)amino)methyl)pyrido[3,4-d]pyrimidin-4(3H)-one]	20 to 50
O=c1[nH]c(COc2cc(F)cc(F)c2)nc2c(CNCC3CCNCC3)nccc12 [Example 125, 2-((3,5-difluorophenoxy)methyl)-8-(((piperidin-4-ylmethyl)amino)methyl)pyrido[3,4-d]pyrimidin-4(3H)-one]	20 to 50
O=c1[nH]c(COc2ccc(F)c(Cl)c2)nc2c(CNCc3ncccn3)nccc12 [Example 180, 2-((3-chloro-4-fluorophenoxy)methyl)-8-(((pyrimidin-2-ylmethyl)amino)methyl)pyrido[3,4-d]pyrimidin-4(3H)-one]	20 to 50
O=c1[nH]c(COc2ccc(F)c(Cl)c2)nc2c(CNC[C@H]3CNCCO3)nccc12 [Example 190, (S)-2-((3-chloro-4-fluorophenoxy)methyl)-8-(((morpholin-2-ylmethyl)amino)methyl)pyrido[3,4-d]pyrimidin-4(3H)-one]	> 50
